Source: patent US20060241031A1 (priority 2003, published 2006)
Like-named read-outs stand apart in the source and are kept apart here.

Tests used:
M1 protein = assay: Indirect ELISA, binding of antibacterial peptides to coated M1 protein (control); parameters: species or system S. pyogenes; conditions: M1 protein applied to plastic wells as control
protein SIC [1] = conditions: peptides on Immobilon filters probed with 125I-labelled SIC from M1 strain AP1
Procedure: Slot-binding and SDS-polyacrylamide gel electrophoresis—Peptides were applied to polyvinylidene difluoride (PVDF) membranes (Immobilon, Millipore) using a Milliblot-D system (Millipore). Membranes were blocked in TBS (0.05 M Tris-HCl, pH 7.5, 0.15 M NaCl) containing 3% bovine serum albumin (SA), incubated with ^125I-labelled protein SIC for 3 h, and washed with TBS containing 0.05% Tween-20. Autoradiography was carried out using Kodak x-Omat AR films and regular intesifying screens.

protein SIC [2] = conditions: SIC applied to plastic wells, peptide added, detected with antibodies
AP1 bacteria [3] = system: AP1 bacteria
Procedure: (§1) Antimicrobial assay—AP1 bacteria were grown to mid-log phase in TH broth, washed and diluted in 10 mM Tris-HCl, pH 7.5, containing 5 mM glucose. 50 μl bacteria (2×10^6 colony forming units (cfu)/ml) were incubated together with α-defensin or LL-37 at various concentrations for 2 h at 37° C. In subsequent experiments, bacteria were incubated with α-defensin and LL-37 at a concentration of 448 nM together with different concentrations of protein SIC or M1 protein and the reactions were carried out for 2 h (α-defensin) or 1 h (LL-37). To quantitate the bactericidal activity serial dilutions of the incubation mixtures were plated on TH agar, incubated overnight at 37° C., and the number of cfus were determined.

AP1 bacteria [4] = system: AP1 bacteria; remark: listed apart in the source
Procedure: Bacterial growth assay—AP1 bacteria were grown to stationary phase in TH broth. 200 μl of TH was inoculated with 5 μl of the bacterial suspension in 96-well plates (Falcon) at 37° C. At early logarithmic phase various amounts of LL-37 was added and growth was followed by measuring the absorbance at 490 nm (using a BioRad 550 microplate reader). The amount of protein SIC in the growth medium was estimated by ELISA (see below).

LL-37 (human) = assay: cell-based or functional assay
LL-37 [5] = target: T1, LL-37 (Homo sapiens, UniProt P49913); assay: Indirect ELISA, SIC homologues coated, binding of LL-37; conditions: purified SIC homologues on microtiter plates; M1 protein negative control
T1 construct: LL-37, […]; (Mw 4492) was synthesized by Innovagen AB; purchased Innovagen AB, Lund, Sweden; host or cells: chemical synthesis
T1 sequence (P49913 134-170 limits assumed): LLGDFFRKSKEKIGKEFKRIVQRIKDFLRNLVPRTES

α-defensin = target: T2, α-defensin (Homo sapiens, UniProt P59665); assay: Antimicrobial assay, inhibition of bactericidal effect of α-defensin; assay type: cell-based
T2 construct: α-defensin (HNP-1), […]; (Mw 3442) was purchased from Sigma; purchased Sigma
T2 sequence (P59665 65-94 limits assumed): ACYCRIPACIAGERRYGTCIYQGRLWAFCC
Procedure: as §1

LL-37 [6] = target: T1, LL-37; assay: Antimicrobial assay, inhibition of bactericidal effect of LL-37; assay type: cell-based
Procedure: as §1

human antibacterial peptide LLGDFFRKSKEKIGKEFKRIVQRIKDFLRNLVPRTES (Mw 4492), synthesized by Innovagen AB [LL-37]
interaction with M1 protein (ELISA, FIG. 1B) (M1 protein): at background level | interaction with 125I-labelled SIC (slot-binding, FIG. 1A) (protein SIC [1]): interacts | affinity for SIC (ELISA, FIG. 1B) (protein SIC [2]): showed affinity | concentration required for 100% killing (AP1 bacteria [3]; AP1 washed and resuspended in buffer, no SIC present, 2 h 37° C.): approximately 0.4 μM | EC50 (AP1 bacteria [3]; read-out: concentration of LL-37 required to kill 50% of the bacteria, bacteria washed to remove SIC before addition of LL-37): 0.2 µM | fold increase of concentration to kill 50% with secreted SIC versus washed bacteria (AP1 bacteria [4]; 11.1 μM compared to 0.2 μM): more than 50 times | EC50 (AP1 bacteria [4]; read-out: concentration of LL-37 required to kill 50% of the bacteria, AP1 at early logarithmic growth phase, SIC 4-5 μg/ml growth medium): 11.1 µM

protein SIC purified from S. pyogenes strain AP1 (serotype M1)
efficiency in blocking LL-37 against blocking α-defensin, from inhibition curves (LL-37 (human)): 10 times | fold rise of the LL-37 concentration required to kill 50% of the bacteria, with secreted SIC against washed bacteria (LL-37 (human)): 50 times

SIC: streptococcal inhibitor of complement, purified from S. pyogenes strain AP1 of serotype M1
binding of LL-37 (ELISA, FIG. 3B) (LL-37 [5]): showed binding of LL-37 clearly above M1 protein | potency in blocking α-defensin and LL-37 relative to the M12 and M55 homologues (α-defensin; from inhibition curves FIG. 3C, both peptides at 448 nM): 5-10 times | blocking of antibacterial activity of α-defensin (α-defensin; α-defensin 0.448 μM, AP1 bacteria, 2 h, M1 protein at a maximum of 0.72 μM): blocks | blocking of antibacterial activity of LL-37 (LL-37 [6]; LL-37 0.448 μM, AP1 bacteria, M1 protein at a maximum of 0.72 μM): blocks | efficiency in blocking LL-37 relative to α-defensin (LL-37 [6]; from inhibition curves, FIG. 2 right panel): about ten
